In US20260022142A1, “MACROCYCLIC IMMUNOMODULATORS” (Bristol-Myers Squibb Company, priority 2022, published 2026):
Bridge positions count the residues as written; N and C are the ends. Square brackets hold non-standard residues; d marks the D form. Peptide text beside a SMILES is read from it. * marks the point of attachment. ξ: configuration not given here. Phe(3-CF3) = N[C@@H](Cc1cccc(C(F)(F)F)c1)C(=O)O; Phe(4-COOH) = N[C@@H](Cc1ccc(C(=O)O)cc1)C(=O)O; Bip = N[C@@H](Cc1ccc(-c2ccccc2)cc1)C(=O)O; NH(CH2)14COOH = O=C(O)CCCCCCCCCCCCCCN*; Phe(3-Me) = Cc1cccc(C[C@H](N)C(=O)O)c1; Phe(4-F) = N[C@@H](Cc1ccc(F)cc1)C(=O)O; NH(CH2)12COOH = O=C(O)CCCCCCCCCCCCN*; Val(3-OH) = CC(C)(O)[C@H](N)C(=O)O; Cha = N[C@@H](CC1CCCCC1)C(=O)O; Thr(3ξ) = CC(O)[C@H](N)C(=O)O; Carboxymethyl = O=C(O)C*; Nle = CCCC[C@H](N)C(=O)O; Orn = NCCC[C@H](N)C(=O)O; Aun = NCCCCCCCCCCC(=O)O; Dab = NCC[C@H](N)C(=O)O; Abu = CC[C@H](N)C(=O)O; AEEA = NCCOCCOCC(=O)O

Target: T1, PD-1/PD-L1 interaction (PE-labeled human PD-L1-Ig binding to Jurkat cell line over-expressing human PD-1) (Homo sapiens, UniProt Q15116)
T1 construct: expressed in transfected cells; host or cells: Jurkat
Test: Jurkat-PD-1 Cell Binding High-Content Screening Assay (CBA)
Assay type: cell-based
Conditions: Jurkat cell line over-expressing human PD-1; PE-labeled PD-L1-Ig 20 nM final; read-out: Jurkat hPD1-PDL1 IC50
Outline: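 Binding of fluorescent PD-L1-Ig (20 nM final) to Jurkat-PD-1 cells was measured by automated imaging after 1 h, following a 2 h compound pre-treatment at 37° C.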

T1 sequence (Q15116 25-288): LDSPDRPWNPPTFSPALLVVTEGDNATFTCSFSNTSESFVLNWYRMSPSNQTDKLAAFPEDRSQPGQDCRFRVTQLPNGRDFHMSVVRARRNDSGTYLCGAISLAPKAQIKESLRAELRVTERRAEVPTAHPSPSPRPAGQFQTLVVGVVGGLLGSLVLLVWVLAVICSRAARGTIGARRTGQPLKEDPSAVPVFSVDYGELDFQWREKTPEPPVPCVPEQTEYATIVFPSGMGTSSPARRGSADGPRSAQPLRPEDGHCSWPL

In the case of CC[C@@H]1NC(=O)CSC[C@@H](C(=O)N[C@@H](CCN)C(=O)NCCOCCOCC(=O)N[C@@H](CCC(=O)O)C(=O)NCCCCCCCCCCCCC(=O)O)NC(=O)[C@H](CO)NC(=O)[C@H](C(C)(C)O)NC(=O)[C@H](CC2CCCCC2)NC(=O)[C@H](CCN)NC(=O)[C@@H](CC(C)C)NC(=O)[C@H](CCCN)NC(=O)[C@H](Cc2ccc(OCC(=O)O)cc2)NC(=O)[C@H](Cc2ccc(-c3ccccc3)cc2)NC(=O)[C@H](Cc2ccc(OCC(=O)O)cc2)NC(=O)[C@H](Cc2cccc(C)c2)NC(=O)[C@H](CC(=O)O)NC(=O)[C@H](Cc2ccc(OCC(=O)O)cc2)NC1=O [Compound 3811] ({CH2CO}-[Abu]Y(Carboxymethyl)D[Phe(3-Me)]Y(Carboxymethyl)[Bip]Y(Carboxymethyl)[Orn][dL][Dab][Cha][Val(3-OH)]SC[Dab][AEEA]E-{NH(CH2)12COOH}; thioether N-14), the IC50 is reported as 0.0039 µM.
Work on CCCC[C@@H]1NC(=O)CSC[C@@H](C(=O)N[C@@H](CCN)C(=O)NCCOCCOCC(=O)NCCOCCOCC(=O)NCCCCCCCCCCCCC(=O)O)NC(=O)[C@H](CO)NC(=O)[C@H](C(C)(C)O)NC(=O)[C@H](CC2CCCCC2)NC(=O)[C@H](CCN)NC(=O)[C@@H](CC(C)C)NC(=O)[C@H](CCCN)NC(=O)[C@H](Cc2ccc(OCC(=O)O)cc2)NC(=O)[C@H](Cc2ccc(-c3ccccc3)cc2)NC(=O)[C@H](Cc2ccc(OCC(=O)O)cc2)NC(=O)[C@H](Cc2cccc(C)c2)NC(=O)[C@H](CC(=O)O)NC(=O)[C@H](Cc2ccc(OCC(=O)O)cc2)NC1=O [Compound 3812] ({CH2CO}-[Nle]Y(Carboxymethyl)D[Phe(3-Me)]Y(Carboxymethyl)[Bip]Y(Carboxymethyl)[Orn][dL][Dab][Cha][Val(3-OH)]SC[Dab][AEEA][AEEA]-{NH(CH2)12COOH}; thioether N-14) yielded an IC50 of 0.0133 µM.
Molecule Cc1cccc(C[C@@H]2NC(=O)[C@H](CC(=O)O)NC(=O)[C@H](Cc3ccc(OCC(=O)O)cc3)NC(=O)[C@H](CCN)NC(=O)CSC[C@@H](C(=O)N[C@@H](CCN)C(=O)NCCOCCOCC(=O)NCCOCCOCC(=O)NCCCCCCCCCCCCC(=O)O)NC(=O)[C@H](CO)NC(=O)[C@H](C(C)(C)O)NC(=O)[C@H](CC3CCCCC3)NC(=O)[C@H](CCN)NC(=O)[C@@H](CC(C)C)NC(=O)[C@H](CCCN)NC(=O)[C@H](Cc3ccc(OCC(=O)O)cc3)NC(=O)[C@H](Cc3ccc(-c4ccccc4)cc3)NC(=O)[C@H](Cc3ccc(OCC(=O)O)cc3)NC2=O)c1 [Compound 3813] ({CH2CO}-[Dab]Y(Carboxymethyl)D[Phe(3-Me)]Y(Carboxymethyl)[Bip]Y(Carboxymethyl)[Orn][dL][Dab][Cha][Val(3-OH)]SC[Dab][AEEA][AEEA]-{NH(CH2)12COOH}; thioether N-14) has an IC50 of 0.0069 µM.
With Cc1cccc(C[C@@H]2NC(=O)[C@H](CC(=O)O)NC(=O)[C@H](Cc3ccc(OCC(=O)O)cc3)NC(=O)[C@H](CCN)NC(=O)CSC[C@@H](C(=O)N[C@@H](CCN)C(=O)NCCOCCOCC(=O)N[C@@H](CCC(=O)O)C(=O)NCCCCCCCCCCCCCCC(=O)O)NC(=O)[C@H](CO)NC(=O)[C@H](C(C)(C)O)NC(=O)[C@H](CC3CCCCC3)NC(=O)[C@H](CCN)NC(=O)[C@@H](CC(C)C)NC(=O)[C@H](CCCN)NC(=O)[C@H](Cc3ccc(OCC(=O)O)cc3)NC(=O)[C@H](Cc3ccc(-c4ccccc4)cc3)NC(=O)[C@H](Cc3ccc(OCC(=O)O)cc3)NC2=O)c1 [Compound 3814] ({CH2CO}-[Dab]Y(Carboxymethyl)D[Phe(3-Me)]Y(Carboxymethyl)[Bip]Y(Carboxymethyl)[Orn][dL][Dab][Cha][Val(3-OH)]SC[Dab][AEEA]E-{NH(CH2)14COOH}; thioether N-14) the IC50 was 0.0534 µM.
For Cc1cccc(C[C@@H]2NC(=O)[C@H](CC(=O)O)NC(=O)[C@H](Cc3ccc(OCC(=O)O)cc3)NC(=O)[C@H](CCN)NC(=O)CSC[C@@H](C(=O)N[C@@H](CCN)C(=O)NCCOCCOCC(=O)NCCOCCOCC(=O)NCCCCCCCCCCCCCCC(=O)O)NC(=O)[C@H](CO)NC(=O)[C@H](C(C)(C)O)NC(=O)[C@H](CC3CCCCC3)NC(=O)[C@H](CCN)NC(=O)[C@@H](CC(C)C)NC(=O)[C@H](CCCN)NC(=O)[C@H](Cc3ccc(OCC(=O)O)cc3)NC(=O)[C@H](Cc3ccc(-c4ccccc4)cc3)NC(=O)[C@H](Cc3ccc(OCC(=O)O)cc3)NC2=O)c1 [Compound 3815] ({CH2CO}-[Dab]Y(Carboxymethyl)D[Phe(3-Me)]Y(Carboxymethyl)[Bip]Y(Carboxymethyl)[Orn][dL][Dab][Cha][Val(3-OH)]SC[Dab][AEEA][AEEA]-{NH(CH2)14COOH}; thioether N-14), the IC50 was 0.0217 µM.
In the case of COC[C@H](NC(=O)COCCOCCNC(=O)[C@H](CCN)NC(=O)[C@@H]1CSCC(=O)N[C@@H](CCN)C(=O)N[C@@H](Cc2ccc(OCC(=O)O)cc2)C(=O)N[C@@H](CC(=O)O)C(=O)N[C@@H](Cc2cccc(C)c2)C(=O)N[C@@H](Cc2ccc(OCC(=O)O)cc2)C(=O)N[C@@H](Cc2ccc(-c3ccccc3)cc2)C(=O)N[C@@H](Cc2ccc(OCC(=O)O)cc2)C(=O)N[C@@H](CCCN)C(=O)N[C@H](CC(C)C)C(=O)N[C@@H](CCN)C(=O)N[C@@H](CC2CCCCC2)C(=O)N[C@@H](C(C)(C)O)C(=O)N[C@@H](CO)C(=O)N1)C(=O)NCCCCCCCCCCCCC(=O)O [Compound 3816] ({CH2CO}-[Dab]Y(Carboxymethyl)D[Phe(3-Me)]Y(Carboxymethyl)[Bip]Y(Carboxymethyl)[Orn][dL][Dab][Cha][Val(3-OH)]SC[Dab][AEEA]S(Me)-{NH(CH2)12COOH}; thioether N-14), the IC50 is reported as 0.026 µM.
In the case of Cc1cccc(C[C@@H]2NC(=O)[C@H](CC(=O)O)NC(=O)[C@H](Cc3ccc(OCC(=O)O)cc3)NC(=O)[C@H](Cc3ccc(F)cc3)NC(=O)CSC[C@@H](C(=O)N[C@@H](CCN)C(=O)NCCOCCOCC(=O)NCCOCCOCC(=O)NCCCCCCCCCCCCC(=O)O)NC(=O)[C@H](CO)NC(=O)[C@H](C(C)(C)O)NC(=O)[C@H](CC3CCCCC3)NC(=O)[C@H](Cc3cnc[nH]3)NC(=O)[C@@H](CC(C)C)NC(=O)[C@H](CCCN)NC(=O)[C@H](Cc3ccc(OCC(=O)O)cc3)NC(=O)[C@H](Cc3ccc(-c4ccccc4)cc3)NC(=O)[C@H](Cc3ccc(OCC(=O)O)cc3)NC2=O)c1 [Compound 3817] ({CH2CO}-[Phe(4-F)]Y(Carboxymethyl)D[Phe(3-Me)]Y(Carboxymethyl)[Bip]Y(Carboxymethyl)[Orn][dL]H[Cha][Val(3-OH)]SC[Dab][AEEA][AEEA]-{NH(CH2)12COOH}; thioether N-14), the IC50 is reported as 0.0576 µM.
For CC(C)C[C@H]1NC(=O)[C@H](CCCN)NC(=O)[C@H](Cc2ccc(OCC(=O)O)cc2)NC(=O)[C@H](Cc2ccc(-c3ccccc3)cc2)NC(=O)[C@H](Cc2ccc(OCC(=O)O)cc2)NC(=O)[C@H](Cc2cccc(C(F)(F)F)c2)NC(=O)[C@H](CC(=O)O)NC(=O)[C@H](Cc2ccc(OCC(=O)O)cc2)NC(=O)[C@H](C(C)O)NC(=O)CSC[C@@H](C(=O)N[C@@H](CCN)C(=O)NCCCCCCCCCCC(=O)O)NC(=O)[C@H](CO)NC(=O)[C@H](C(C)(C)O)NC(=O)[C@H](CC2CCCCC2)NC(=O)[C@H](CCN)NC1=O (stereo partly drawn) [Compound 3818] ({CH2CO}-[Thr(3ξ)]Y(Carboxymethyl)D[Phe(3-CF3)]Y(Carboxymethyl)[Bip]Y(Carboxymethyl)[Orn][dL][Dab][Cha][Val(3-OH)]SC[Dab][Aun]-OH; thioether N-14), the IC50 was 0.0039 µM.
CC(C)C[C@H]1NC(=O)[C@H](CCCN)NC(=O)[C@H](Cc2ccc(OCC(=O)O)cc2)NC(=O)[C@H](Cc2ccc(-c3ccccc3)cc2)NC(=O)[C@H](Cc2ccc(OCC(=O)O)cc2)NC(=O)[C@H](Cc2cccc(C(F)(F)F)c2)NC(=O)[C@H](CC(=O)O)NC(=O)[C@H](Cc2ccc(OCC(=O)O)cc2)NC(=O)[C@H](CCN)NC(=O)CSC[C@@H](C(=O)N[C@@H](CCN)C(=O)NCCCCCCCCCCC(=O)O)NC(=O)[C@H](C(C)O)NC(=O)[C@H](C(C)C)NC(=O)[C@H](CC2CCCCC2)NC(=O)[C@H](CCN)NC1=O (stereo partly drawn) [Compound 3820] ({CH2CO}-[Dab]Y(Carboxymethyl)D[Phe(3-CF3)]Y(Carboxymethyl)[Bip]Y(Carboxymethyl)[Orn][dL][Dab][Cha]V[Thr(3ξ)]C[Dab][Aun]-OH; thioether N-14) gave an IC50 of 0.0068 µM.
With CC(C)C[C@H]1NC(=O)[C@H](Cc2cnc[nH]2)NC(=O)[C@H](Cc2ccc(OCC(=O)O)cc2)NC(=O)[C@H](Cc2ccc(-c3ccccc3)cc2)NC(=O)[C@H](Cc2ccc(C(=O)O)cc2)NC(=O)[C@H](Cc2cccc(C(F)(F)F)c2)NC(=O)[C@H](CC(=O)O)NC(=O)[C@H](Cc2ccc(OCC(=O)O)cc2)NC(=O)[C@H](C(C)O)NC(=O)CSC[C@@H](C(=O)N[C@@H](CCN)C(=O)NCCCCCCCCCCC(=O)O)NC(=O)[C@H](C(C)O)NC(=O)[C@H](C(C)C)NC(=O)[C@H](CC2CCCCC2)NC(=O)[C@H](CCN)NC1=O (stereo partly drawn) [Compound 3821] ({CH2CO}-[Thr(3ξ)]Y(Carboxymethyl)D[Phe(3-CF3)][Phe(4-COOH)][Bip]Y(Carboxymethyl)H[dL][Dab][Cha]V[Thr(3ξ)]C[Dab][Aun]-OH; thioether N-14) the IC50 was 0.004 µM.
With CCCC[C@@H]1NC(=O)[C@H](C(C)C)NC(=O)[C@H](CC2CCCCC2)NC(=O)[C@H](CCN)NC(=O)[C@@H](CC(C)C)NC(=O)[C@H](CCCN)NC(=O)[C@H](Cc2ccc(OCC(=O)O)cc2)NC(=O)[C@H](Cc2ccc(-c3ccccc3)cc2)NC(=O)[C@H](Cc2ccc(OCC(=O)O)cc2)NC(=O)[C@H](Cc2cccc(C(F)(F)F)c2)NC(=O)[C@H](CC(=O)O)NC(=O)[C@H](Cc2ccc(C(=O)O)cc2)NC(=O)[C@H](CCN)NC(=O)CSC[C@@H](C(=O)N[C@@H](CCN)C(=O)NCCCCCCCCCCC(=O)O)NC1=O [Compound 3825] ({CH2CO}-[Dab][Phe(4-COOH)]D[Phe(3-CF3)]Y(Carboxymethyl)[Bip]Y(Carboxymethyl)[Orn][dL][Dab][Cha]V[Nle]C[Dab][Aun]-OH; thioether N-14) the IC50 was 0.0197 µM.
